Patent US20260001914A1, “MACROCYCLIC PEPTIDES TARGETING KRAS” (Merck Sharp & Dohme LLC, priority 2022, published 2026)
*1 amine or outer side, *2 acyl side, *3 side chain or, on linkers, in order; H or OH if unused. Where a SMILES comes first, the peptide text is derived from it. Bridges are numbered along the chain shown (N, C = ends). [ ]: non-standard residue; d: D form. cBu(1-CO,cis-3-CH2NH) = O=C([C@H]1C[C@@H](CN[*:1])C1)[*:2]; X75 = CCC[C@H](N[*:1])c1nncn1[C@@H](Cc1ccccc1)C(=O)[*:2]; Phe(4-guanidino) = N=C(N)Nc1ccc(C[C@H](N)C(=O)O)cc1; X22 = CNC(=N)N(C)CCC[C@@H](C(=O)[*:2])N(C)[*:1]; Ala(pyrimidin-5-yl) = N[C@@H](Cc1cncnc1)C(=O)O; X71 = COc1c(F)cc(C[C@H](N[*:1])C(=O)[*:2])cc1F; X6 = O=C([C@H](Cc1cnn(C2COC2)c1)N[*:1])[*:2]; NMeHis(τ-Me) = CN[C@@H](Cc1cn(C)cn1)C(=O)O; X3 = CN([C@@H](Cc1cncnc1)C(=O)[*:2])[*:1]; X24 = O=C([C@H](Cc1ccncc1Cl)N[*:1])[*:2]; X26 = Cn1cc(C[C@H](N[*:1])C(=O)[*:2])cn1; Lys(N3) = [N-]=[N+]=NCCCC[C@H](N)C(=O)O; NMeArg(Me) = CNC(=N)NCCC[C@H](NC)C(=O)O; X11 = CC(C)(F)CC[C@H](N[*:1])C(=O)[*:2]; Nle(5,5-F2) = CC(F)(F)CC[C@H](N)C(=O)O; Phe(4-F) = N[C@@H](Cc1ccc(F)cc1)C(=O)O; 1Nal = N[C@@H](Cc1cccc2ccccc12)C(=O)O; Ala(4-THP) = N[C@@H](CC1CCOCC1)C(=O)O; NHCH2CH2SCH2CO = O=C(CSCCN[*:1])[*:2]; Ala(cPent) = N[C@@H](CC1CCCC1)C(=O)O; Phe(2-F) = N[C@@H](Cc1ccccc1F)C(=O)O; NMe3Pal = CN[C@@H](Cc1cccnc1)C(=O)O; X1 = O=C(C12CC(CN[*:1])(C1)C2)[*:2]; Ala(cPr) = N[C@@H](CC1CC1)C(=O)O; NMeF = CN[C@@H](Cc1ccccc1)C(=O)O; PhLac = O=C(O)[C@@H](O)Cc1ccccc1; 3Pal = N[C@@H](Cc1cccnc1)C(=O)O; Ahp(2) = CCCCC[C@H](N)C(=O)O; Cba = N[C@@H](CC1CCC1)C(=O)O; hLeu = CC(C)CC[C@H](N)C(=O)O; αMeC = C[C@](N)(CS)C(=O)O; NMeA = CN[C@@H](C)C(=O)O; Nle = CCCC[C@H](N)C(=O)O; Nva = CCC[C@H](N)C(=O)O

Each molecule was assayed against KRAS-G12D protein (Homo sapiens, UniProt P01116, G12D) (assay: SOS-mediated nucleotide exchange assay (BODIPY-GDP / Tb-streptavidin TR-FRET)).
KRAS-G12D protein, sequence (P01116 1-188 isoform P01116-2 G12D): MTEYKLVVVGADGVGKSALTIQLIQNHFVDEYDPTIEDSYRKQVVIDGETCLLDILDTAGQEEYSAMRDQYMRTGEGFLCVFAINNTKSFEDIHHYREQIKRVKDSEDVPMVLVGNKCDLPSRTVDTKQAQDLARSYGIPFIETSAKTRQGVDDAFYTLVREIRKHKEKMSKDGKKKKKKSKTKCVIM
Format: biochemical

| SMILES | EC50 [nM] |
| --- | --- |
| CCCC[C@@H]1NC(=O)[C@H](Cc2ccc(NC(=N)N)cc2)NC(=O)[C@H](CCCN(C)C(=N)NC)N(C)C(=O)[C@H](Cc2ccccc2)NC(=O)[C@H]2C[C@@H](CNC(=O)[C@H](Cc3ccccc3)N(C)C(=O)[C@H](CCCC)NC(=O)[C@H](Cc3ccc(OC)cc3)NC1=O)C2 [compound 384, cyclo(F-NMeArg1MeMe-Phe4Gn-Nle-TyrOMe-Nle-NMeF-c3amCblc)] (cyclo(F[X22][Phe(4-guanidino)][Nle]Y(Me)[Nle][NMeF][cBu(1-CO,cis-3-CH2NH)])) | 181 |
| CCCC[C@@H]1NC(=O)[C@H](Cc2cccnc2)NC(=O)[C@H](C)N(C)C(=O)[C@H](Cc2ccccc2)OC(=O)C23CC(CNC(=O)[C@H](Cc4ccccc4)N(C)C(=O)[C@H](CCCC)NC(=O)[C@H](Cc4ccccc4F)NC1=O)(C2)C3 [compound 236, cyclo(FLac-NMeA-3Pal-Nle-Phe2F-Nle-NMeF-amBCP)] (cyclo([3Pal][Nle][Phe(2-F)][Nle][NMeF][X1][PhLac][NMeA])) | 50.3 |
| CCC[C@@H]1NC(=O)[C@H](Cc2ccc(OC)cc2)NC(=O)[C@H](CC2CCC2)NC(=O)[C@H](Cc2cccnc2)NC(=O)[C@H](CCCNC(=N)N)NC(=O)[C@H](Cc2ccccc2)NC(=O)CSC[C@H](C(N)=O)NC(=O)[C@H](Cc2ccccc2)n2cnnc21 [SEQ ID NO: 64, cyclo(F-R-3Pal-cBuA- TyrOMe-124triazole- dC-ClAc)] ({CH2CO}-FR[3Pal][Cba]Y(Me)[X75][dC]-NH2; thioether N-7) | 2820 |
| CCCC[C@@H]1NC(=O)[C@H](Cc2cnn(C)c2)NC(=O)[C@H](C)N(C)C(=O)[C@H](Cc2ccccc2)OC(=O)C23CC(CNC(=O)[C@H](Cc4cccnc4)N(C)C(=O)[C@H](CCCC)NC(=O)[C@H](Cc4ccccc4F)NC1=O)(C2)C3 [compound 400, cyclo(FLac-NMeA-Ala4PyzlMe-Nle-Phe2F-Nle-NMe3Pal-amBCP)] (cyclo([NMe3Pal][X1][PhLac][NMeA][X26][Nle][Phe(2-F)][Nle])) | 14 |
| CC(C)CC[C@@H]1NC(=O)[C@H](Cc2ccccc2F)NC(=O)[C@H](CC2CCCC2)NC(=O)[C@H](Cc2cncnc2)NC(=O)[C@H](C)N(C)C(=O)[C@H](Cc2ccccc2)OC(=O)C23CC(CNC(=O)[C@H](Cc4ccccc4)N(C)C1=O)(C2)C3 [compound 135, cyclo(FLac-NMcA-PyrimAla-cPeA-Phe2F-hL-NMeF-amBCP)] (cyclo([Ala(cPent)][Phe(2-F)][hLeu][NMeF][X1][PhLac][NMeA][Ala(pyrimidin-5-yl)])) | 4.13 |
| CCCC[C@@H]1NC(=O)[C@H](Cc2cc(F)c(OC)c(F)c2)NC(=O)[C@H](C)N(C)C(=O)[C@H](Cc2ccccc2)OC(=O)C23CC(CNC(=O)[C@H](Cc4ccccc4)N(C)C(=O)[C@H](CCCC)NC(=O)[C@H](Cc4ccccc4F)NC1=O)(C2)C3 [compound 310, cyclo(FLac-NMeA-TyrOMe35F2-Nle-Phe2F-Nle-NMeF-amBCP)] (cyclo([NMeA][X71][Nle][Phe(2-F)][Nle][NMeF][X1][PhLac])) | 140 |
| CCCC[C@@H]1NC(=O)[C@H](CCCCN=[N+]=[N-])NC(=O)[C@H](CCCNC(=N)N)NC(=O)[C@H](Cc2ccc(F)cc2)NC(=O)CSCCNC(=O)[C@H](Cc2ccccc2)N(C)C(=O)[C@H](CCCC)NC(=O)[C@H](Cc2ccc(O)cc2)NC1=O [compound 89, cyclo(Phe4F-R-LysN3-Nle-Y-Nle-NMeF-Cysteamine-ClAc)] (cyclo([Lys(N3)][Nle]Y[Nle][NMeF][NHCH2CH2SCH2CO][Phe(4-F)]R)) | 3530 |
| CCCC[C@@H]1NC(=O)[C@H](Cc2ccc(OC)cc2)NC(=O)[C@H](CC2CCC2)NC(=O)[C@H](Cc2cccnc2)NC(=O)[C@H](CCCNC(=N)N)NC(=O)[C@H](Cc2ccccc2)NC(=O)C2CCC3(CN(C3)C(=O)[C@H](Cc3ccccc3)N(C)C1=O)O2 (single isomer, unassigned) [compound 100, cyclo(F-R-3Pal-cBuA-TyrOMe-Nle-NMeF-spiro54)] | 656 |
| CCCC[C@@H]1NC(=O)[C@H](Cc2cnc(C#N)nc2)NC(=O)[C@H](C)N(C)C(=O)[C@H](Cc2ccccc2)OC(=O)C23CC(CNC(=O)[C@H](Cc4ccccc4)N(C)C(=O)[C@H](CCCC)NC(=O)[C@H](Cc4ccccc4F)NC1=O)(C2)C3 (single isomer, unassigned) [compound 315, cyclo(FLac-NMeA-AlaPyrim4CN-Nle-Phe2F-Nle-NMeF-amBCP)] | 5.28 |
| C[C@H]1C(=O)N[C@@H](Cc2cnn(C3COC3)c2)C(=O)N[C@@H](CC2CC2)C(=O)N[C@@H](Cc2ccccc2F)C(=O)N[C@@H](CCC(C)(F)F)C(=O)N(C)[C@@H](Cc2ccccc2)C(=O)NCC23CC(C2)(C3)C(=O)O[C@@H](Cc2ccccc2)C(=O)N1C [compound 291, cyclo(FLac-NMcA-AlaPyzlOx-cPrA-Phe2F-Nle3F2-NMeF-amBCP)] (cyclo([Ala(cPr)][Phe(2-F)][Nle(5,5-F2)][NMeF][X1][PhLac][NMeA][X6])) | 1 |
| CCCC[C@@H]1NC(=O)[C@H](Cc2ccc(C(F)(F)F)nc2)NC(=O)[C@H](CCCn2ccnc2)N(C)C(=O)[C@H](Cc2ccccc2)OC(=O)C23CC(CNC(=O)[C@H](Cc4ccccc4)N(C)C(=O)[C@H](CCCC)NC(=O)[C@H](Cc4ccccc4F)NC1=O)(C2)C3 (single isomer, unassigned) [compound 218, cyclo(FLac-NMeNvalmid-4CF33Pal-Nle-Phe2F-Nle-NMeF-amBCP)] | 188 |
| CCCC[C@@H]1NC(=O)[C@H](Cc2cccnc2)NC(=O)[C@H](C)N(C)C(=O)[C@H](Cc2ccccc2)OC(=O)C23CC(CNC(=O)[C@H](Cc4cncnc4)N(C)C(=O)[C@H](CCCC)NC(=O)[C@H](Cc4ccccc4F)NC1=O)(C2)C3 [compound 401, cyclo(FLac-NMeA-3Pal-Nle-Phe2F-Nle-NMeAlaPyrim-amBCP)] (cyclo([3Pal][Nle][Phe(2-F)][Nle][X3][X1][PhLac][NMeA])) | 29 |
| CC(C)CC[C@@H]1NC(=O)[C@H](Cc2ccccc2F)NC(=O)[C@H](CC2CC2)NC(=O)[C@H](Cc2cccnc2)NC(=O)[C@H](C)N(C)C(=O)[C@H](Cc2ccccc2)OC(=O)C23CC(CNC(=O)[C@H](Cc4cccnc4F)N(C)C1=O)(C2)C3 (single isomer, unassigned) [compound 297, cyclo(FLac-NMeA-3Pal-cPrA-Phe2F-hL-NMe3Pal2F-amBCP)] | 4 |
| C[C@H]1C(=O)N[C@@H](Cc2cncnc2)C(=O)N[C@@H](CC2CC2)C(=O)N[C@@H](Cc2ccncc2Cl)C(=O)N[C@@H](CCC(C)(C)F)C(=O)N(C)[C@@H](Cc2ccccc2)C(=O)NCC23CC(C2)(C3)C(=O)O[C@@H](Cc2ccccc2)C(=O)N1C [compound 299, cyclo(FLac-NMeA-PyrimAla-cPrA-4Pal2Cl-hL3F-NMeF-amBCP)] (cyclo([Ala(cPr)][X24][X11][NMeF][X1][PhLac][NMeA][Ala(pyrimidin-5-yl)])) | 6.3 |
| CCC[C@@H]1NC(=O)[C@H](Cc2ccc(OC)cc2)NC(=O)[C@H](CC(C)C)NC(=O)[C@H](Cc2cccnc2)NC(=O)[C@H](CCCNC(=N)N)NC(=O)[C@H](Cc2ccc(F)cc2)NC(=O)CSCCNC(=O)[C@H](Cc2ccccc2)N(C)C1=O [compound 87, cyclo(Phe4F-R-3Pal-L-TyrOMe-Nva-NMeF-Cysteamine-ClAc)] (cyclo([3Pal]LY(Me)[Nva][NMeF][NHCH2CH2SCH2CO][Phe(4-F)]R)) | 1600 |
| CCCC[C@@H]1NC(=O)[C@H](CCCCN)NC(=O)[C@H](CCCNC(=N)N)NC(=O)[C@H](Cc2cccc3ccccc23)NC(=O)CSCCNC(=O)[C@H](Cc2ccccc2)N(C)C(=O)[C@H](CCCC)NC(=O)[C@H](Cc2ccc(O)cc2)NC1=O [compound 71, cyclo(INal-R-K-Nle-Y-Nle-NMeF-Cysteamine-ClAc)] (cyclo([1Nal]RK[Nle]Y[Nle][NMeF][NHCH2CH2SCH2CO])) | 526 |
| CCCC[C@@H]1NC(=O)[C@H](Cc2ccc(O)cc2)NC(=O)[C@H](CC2CCCCC2)NC(=O)[C@H](CCCCN)NC(=O)[C@H](CCCNC(=N)N)NC(=O)[C@H](Cc2cccc3ccccc23)NC(=O)CSC[C@H](C(N)=O)NC(=O)[C@H](Cc2ccccc2)N(C)C1=O [compound 139, cyclo(INal-R-K-Cha-Y-Nle-NMeF-dCl-ClAc)] | 5990 |
| CCCCC[C@@H]1NC(=O)[C@H](Cc2ccc(OC)cc2)NC(=O)[C@H](CC2CCC2)NC(=O)[C@H](Cc2ccc(NC(=N)N)cc2)NC(=O)[C@H](CCCNC(=N)NC)N(C)C(=O)[C@H](Cc2ccccc2)NC(=O)CSC[C@@](C)(C(N)=O)NC(=O)[C@H](Cc2ccccc2)N(C)C1=O [compound 380, cyclo(F-NMeArgMe-Phe4Gn-cBuA-TyrOMe-Abp-NMeF-aMeCl-ClAc)] ({CH2CO}-F[NMeArg(Me)][Phe(4-guanidino)][Cba]Y(Me)[Ahp(2)][NMeF][αMeC]-NH2; thioether N-8) | 1.68 |
| CCCCC[C@@H]1NC(=O)[C@H](Cc2ccc(OC)cc2)NC(=O)[C@H](CC2CCC2)NC(=O)[C@H](Cc2cccnc2)NC(=O)[C@H](CCCNC(=N)N)NC(=O)[C@H](Cc2ccccc2)NC(=O)CSC[C@@](C)(C(N)=O)NC(=O)[C@H](Cc2cn(C)cn2)N(C)C1=O [compound 378, cyclo(F-R-3Pal-cBuA-TyrOMe-Ahp-NMeHis1Me-aMeCl-ClAc)] ({CH2CO}-FR[3Pal][Cba]Y(Me)[Ahp(2)][NMeHis(τ-Me)][αMeC]-NH2; thioether N-8) | 45.2 |
| CCCC[C@@H]1NC(=O)[C@H](Cc2ccc(O)cc2)NC(=O)[C@H](CC2CCOCC2)NC(=O)[C@H](Cc2ccc(NC(=N)N)cc2)NC(=O)[C@H](CCCNC(=N)N)NC(=O)[C@H](Cc2cccc3ccccc23)NC(=O)CSC[C@H](C(=O)O)NC(=O)[C@H](Cc2ccccc2)N(C)C1=O [compound 147, cyclo(INal-R-Phe4Gn-AlaTHP4-Y-Nle-NMeF-dC-ClAc)] ({CH2CO}-[1Nal]R[Phe(4-guanidino)][Ala(4-THP)]Y[Nle][NMeF][dC]-OH; thioether N-8) | 512 |
| CCCCC[C@@H]1NC(=O)[C@H](Cc2ccc(OC)cc2)NC(=O)[C@H](CC2CCC2)NC(=O)[C@H](Cc2cccnc2)NC(=O)[C@H](CCCNC(=N)N)NC(=O)[C@H](Cc2ccccc2)NC(=O)CSC[C@@](C)(C(N)=O)NC(=O)[C@H](Cc2cncnc2)N(C)C1=O [compound 376, cyclo(F-R-3Pal-cBuA-TyrOMe-Ahp-NMeAlaPyrim-aMeCl-ClAc)] ({CH2CO}-FR[3Pal][Cba]Y(Me)[Ahp(2)][X3][αMeC]-NH2; thioether N-8) | 26.6 |
